Reference: US8598114B2, “Antimicrobial compounds” (priority 2007, dated 2013)
Values joined by “and” are separate entries in the source; they are usually repeats but may differ in a detail not shown here. Identical values can stand only once.

How the values were obtained:
[1] = system: Staphylococcus haemolyticus; experiment: MIC, CLSI microbroth dilution (aerobic bacteria); assay type: cell-based; conditions: Staphylococcus haemolyticus - antibiotic susceptible clinical isolate
Source text: (§1) Cation-adjusted Mueller-Hinton broth (Oxoid Ltd., Basingstoke, UK and Trek Diagnostic Systems Ltd., East Grinstead, UK) (supplemented with 5% laked horse blood for Streptococcus spp., Corynebacterium jeikeium and Listeria monocytogenes) was used for aerobic bacteria, with an initial inoculum of approximately 10^5 colony-forming units (CFU)/mL.

[2] = system: Enterococcus faecium; experiment: MIC, CLSI microbroth dilution (aerobic bacteria); assay type: cell-based
Source text: as §1

[3] = system: Corynebacterium jeikeium; experiment: MIC, CLSI microbroth dilution (aerobic bacteria); assay type: cell-based
Source text: as §1

[4] = system: Acinetobacter baumanii; experiment: MIC, CLSI microbroth dilution (aerobic bacteria); assay type: cell-based; conditions: Acinetobacter baumanii - antibiotic-susceptible clinical isolate
Source text: as §1

[5] = system: Enterococcus gallinarum; experiment: MIC, CLSI microbroth dilution (aerobic bacteria); assay type: cell-based; conditions: Enterococcus gallinarum vancomycin-resistant (VanC) clinical isolate
Source text: as §1

[6] = system: Candida tropicalis; experiment: MIC, CLSI microbroth dilution (yeasts); assay type: cell-based; design: unit not given beside the values; conditions: Candida tropicalis ATCC750 - reference strain
Protocol: (§2) M27-A2 Vol. 22 No. 15 Reference Method for Broth Dilution Antifungal Susceptibility Testing of Yeasts; Approved Standard-Second Edition.
(§3) Yeast and filamentous fungal MIC were performed in MOPS buffered RPMI 1640 medium (MOPS buffer obtained from Sigma Aldrich Ltd., RPMI 1640 obtained from Invitrogen Ltd, Paisley, Scotland). The yeast inocula were in the range 7.5×10^2-4×10^3 CFU/mL and the filamentous fungi approximately 8×10^3-1×10^5CFU/mL

[7] = system: Candida (Issatchenkia) krusei; experiment: MIC, CLSI microbroth dilution (yeasts); assay type: cell-based; design: unit not given beside the values
Protocol: as §2, §3

[8] = system: Candida albicans; experiment: MIC, CLSI microbroth dilution (yeasts); assay type: cell-based; design: unit not given beside the values
Protocol: as §2, §3

[9] = system: Cryptococcus neoformans; experiment: MIC, CLSI microbroth dilution (yeasts); assay type: cell-based; design: unit not given beside the values; conditions: Cryptococcus neoformans - G.R. Micro collection
Protocol: as §2, §3

[10] = system: Candida parapsilosis; experiment: MIC, CLSI microbroth dilution (yeasts); assay type: cell-based; design: unit not given beside the values
Protocol: as §2, §3

[11] = system: Clostridium perfringens; assay type: cell-based; conditions: Clostridium perfringens - antibiotic-susceptible clinical isolate
[12] = system: Bacteroides fragilis; experiment: MIC, CLSI microbroth dilution (anaerobic bacteria); assay type: cell-based; design: unit not given here; conditions: Bacteroides fragilis - ATCC 25285, SBB (Table 2)
[13] = system: Staphylococcus aureus; experiment: MIC, CLSI microbroth dilution (aerobic bacteria); assay type: cell-based; design: unit not given here
Source text: as §1
To evaluate whether freezing affected the activity of the peptides some MIC determinations were repeated using plates containing freshly-prepared Mueller-Hinton broth.

[14] = system: Microsporum canis; experiment: MIC, CLSI microbroth dilution (filamentous fungi); assay type: cell-based; conditions: Microsporum canis - G.R. Micro collection
Protocol: M38-A Vol. 22 No. 16 Reference Method for Broth Dilution Antifungal Susceptibility Testing of Filamentous Fungi; Approved Standard.
as §3

[15] = system: Clostridium difficile; experiment: MIC, CLSI microbroth dilution (anaerobic bacteria); assay type: cell-based; conditions: Clostridium difficile - antibiotic-susceptible clinical isolate
Protocol: M11-A6 Vol. 24 No. 2 Methods for Antimicrobial Susceptibility Testing of Anaerobic Bacteria; Approved Standard-Sixth Edition.
Supplemented Brucella broth (SBB) was used for the anaerobic strains with an inoculum of approximately 10^6 CFU/mL. SBB is a broth consisting of 1% peptone, 0.5% ‘Lab-lemco’, 1% glucose and 0.5% sodium chloride supplemented with 5 […] vitamin K (both obtained from Sigma Aldrich Ltd.)

[16] = system: Haemophilus influenzae; experiment: MIC, CLSI microbroth dilution (Haemophilus test medium)
[17] = system: Streptococcus constellatus; experiment: MIC, CLSI microbroth dilution (aerobic bacteria); assay type: cell-based; design: unit not given beside the values
Source text: as §1

[18] = system: Group C Streptococcus; experiment: MIC, CLSI microbroth dilution (aerobic bacteria); assay type: cell-based; design: unit not given beside the values
Source text: as §1

[19] = system: Shigella sp; experiment: MIC, CLSI microbroth dilution (aerobic bacteria); assay type: cell-based; design: unit not given beside the values; conditions: Shigella sp - antibiotic-susceptible clinical isolate
Source text: as §1

[20] = system: Streptococcus pyogenes; experiment: MIC, CLSI microbroth dilution (aerobic bacteria); assay type: cell-based; design: unit not given beside the values
Source text: as §1

Measured: MIC

N=C(N)NCCCC(N)C(=O)NC(Cc1ccc(-c2ccc3ccccc3c2)cc1)C(=O)NC(CCCNC(=N)N)C(=O)NCCc1ccccc1 (centres unmarked) [Compound 1]
8 and 4: [13]; GP01 Staphylococcus aureus ATCC 29213 control strain, repeat results (Table 2), Frozen MHB
32: [3]; Corynebacterium jeikeium - antibiotic-susceptible clinical isolate | [3]; Corynebacterium jeikeium - multi-drug resistant clinical isolate | [15] | [18]; Group C Streptococcus - antibiotic-susceptible clinical isolate | [19] | [20]; Streptococcus pyogenes - Macrolide (M-type) resistance clinical isolate | [20]; Streptococcus pyogenes - Macrolide (MLS) resistant clinical isolate
≧128: [11] | [16]; Haemophilus influenzae - β-lactamase negative clinical isolate | [16]; Haemophilus influenzae - β-lactamase positive clinical isolate | [16]; Haemophilus influenzae β-lactamase negative ampicillin-resistant
64: [4] | [12] | [17]; Streptococcus constellatus - antibiotic-susceptible clinical isolate | [17]; Streptococcus constellatus - macrolide-resistant clinical isolate | [18]; Group C Streptococcus - macrolide-resistant clinical isolate
2: [6] | [8]; Candida albicans ATCC24433 - reference strain | [8]; Candida albicans ATCC90028 - reference strain
16: [2]; Enterococcus faecium vancomycin-resistant (VanA) clinical isolate
8: [2]; Enterococcus faecium vancomycin-resistant (VanB) clinical isolate | [2]; Enterococcus faecium vancomycin-susceptible clinical isolate | [7]; F05 Candida (Issatchenkia) krusei ATCC 6258 reference strain, repeat results (Table 2), RPMI 1640 | [13]; EMRSA1 Staphylococcus aureus (MRSA) - SSCmec type 3 | [13]; Staphylococcus aureus - multi-drug-resistant clinical isolate | [14]
4: [1] | [5] | [7]; Candida (Issatchenkia) krusei ATCC6258 - reference strain | [9] | [10]; Candida parapsilosis ATCC 22019, RPMI 1640 (Table 2) | [10]; Candida parapsilosis ATCC90018 - reference strain | [13]; EMRSA3 Staphylococcus aureus (MRSA) - SSCmec type 1 | [13]; EMRSA15 Staphylococcus aureus (MRSA) - SSCmec type 4 | [13]; EMRSA16 Staphylococcus aureus (MRSA) - SSCmec type 2 | [13]; GP01 Staphylococcus aureus ATCC 29213 control strain, repeat results (Table 2), Fresh MHB | [13]; HT2001254 Staphylococcus aureus (MRSA) - PVL positive | [13]; MU50 Staphylococcus aureus (MRSA) - VISA type strain | [13]; Staphylococcus aureus - methicillin-resistant clinical isolate | [13]; Staphylococcus aureus - teicoplanin-intermediate clinical isolate | [13]; Staphylococcus aureus ATCC 25923 - antibiotic-susceptible control | [13]; Staphylococcus aureus ATCC 29213 - antibiotic-susceptible control (Table 1) | [13]; Staphylococcus aureus ATCC 43300 - methicillin-resistant control strain
